Data set [1] in a line: Detection of singlet oxygen with DPBF under 740 nm irradiation. Format: physicochemical. As for the experimental part: Preparation of DPBF@C18-PEG2k and TPBC@C18-PEG2k. To a solution of C18-Fc-PEG2k (10 mg mL^-1) in water (1 mL) was added a solution of TPBC (bacteriochlorin) or DPBF (1,3-diphenylisobenzofuran) (12.5 µL, 1 mg mL^-1) in chloroform (1 mL). The mixture was sonicated using an ultrasound sonicator probe (power 40%, 10 min, pulse) allowing TPBC or DPBF to be gradually encapsulated by evaporation of chloroform via heating of the probe. The resulting TPBC/DPBF@C18-Fc-PEG2k colloidal suspension was filtered on 0.45 µm nylon membrane to eliminate any free TPBC or DPBF from the medium.
Preparation of TPBC-DPBF@C18-PEG2k. To a solution of C18-Fc-PEG2k (10 mg mL^-1) in water (1 mL) was added a solution of TPBC (12.5 µL, 1 mg mL^-1) in chloroform (1 mL). The mixture was sonicated using an ultrasound sonicator probe (power 40%, 10 min, pulse) allowing TPBC to be gradually encapsulated by evaporation of chloroform via heating of the probe. […]
1,3-Diphenylisobenzofuran (DPBF) is a reagent for detecting singlet oxygen. […] The reaction was monitored using UV-vis spectroscopy (Fig. 8B). […]
First, we ensured that both TPBC and DPBF could be encapsulated into our C18-PEG2k micelles individually. […] TPBC-DPBF@C18-PEG2k was then irradiated under 740 nm light and the photoreaction was monitored by UV-vis spectroscopy every 20 sec (Fig. 9C).

Data set [2] is described as follows: Solubility in water by UV measurement. Format: physicochemical. Particulars: without micelles.

Molecules are shown by their SMILES. Entries after “also recorded” stand apart in the source; their conditions may differ.

Turning to `c1ccc(-c2c3nc(c(-c4ccccc4)c4ccc([nH]4)c(-c4ccccc4)c4nc(c(-c5ccccc5)c5ccc2[nH]5)CC4)CC3)cc1` [TPBC, tetraphenylbacteriochlorin], the “time to complete degradation of DPBF” value in data set [1] (DPBF and TPBC in DMSO) worked out at 60 s. Besides, the solubility in water result in data set [2] is “not soluble in water; also recorded: insoluble in water”.
For `c1ccc(-c2oc(-c3ccccc3)c3ccccc23)cc1` [DPBF, 1,3-diphenylisobenzofuran], the “stability of DPBF under NIR light” value in data set [1] (in DMSO, several minutes, without TPBC) is reported as “no alteration was observed”. The solubility in water entry in data set [2] is listed as “not soluble in water; also recorded: insoluble in water”.

Values taken from patent EP4434996A1, “MICELLES IN CANCER TREATMENT” (Commissariat à l'Energie Atomique et aux Energies …, priority 2023, dated 2024).
